Experimental findings from patent publication US7169813B2, “4-oxo-fenretinide, administered alone and in combination with fenretinide, as preventive and therapeutic agent for cancer” (Fondazione IRCCS “Istituto Nazionale Dei Tumori”, priority 2004, dated 2007) are described below.

One data set relates to A2780/HPR. The data set can be described thus: Apoptosis induction (Cell Death Detection ELISA, DNA fragmentation). The class given is cell-based, human. Particulars: 5 μM, 24 hr. The protocol:
Although the mechanism of action of 4-HPR is not well understood, its tumor growth inhibitory effects have been attributed to apoptosis induction (Supino et al., Int. J. Cancer, 1996, 65:491–497). The apoptosis inducing effects of 4-oxo-4-HPR were compared with those of 4-HPR in the human ovarian carcinoma cell line A2780 and in its counterpart A2780/HPR, with induced resistance to 4-HPR. Apoptosis was evaluated by a Cell Death Detection ELISA Plus Assay Kit (Roche Diagnostic GmbH, Germany) according to the manufacturer's instructions. This assay quantitates the amount of cytoplasmic histone-associated DNA fragments which increases during apoptosis. Cells were seeded in 96-well cell culture plates and treated the day after with 5 μM 4-oxo-4-HPR or 4-HPR for 24 hr.
(An ELISA detects its analyte on a solid surface through an enzyme-linked reagent.)

Another data set concerns plasma retinol levels. The data set can be described thus: Effects on plasma retinol in mice. The class given is in vivo. Conditions: mice i.p. 120 mg/kg for 4 days; for Retinol % reduction: plasma, baseline vs 5 h after last treatment, control 22. The protocol:
One of the main side effects of 4-HPR, is diminished dark adaptation or nyctalopia (Formelli et al., FASEB J., 1996, 10:1014–1024) which is caused by a decrease in plasma retinol levels (Formelli et al., Cancer Res., 49:6149–6152). The influence of 4-oxo-4-HPR on plasma retinol levels was assessed in mice and was compared with the effects caused by 4-HPR. Animal studies were approved by the Ethics Committee for Animal Experimentation of Istituto Nazionale Tumori (Milan Italy) and were carried out according to national and international guidelines (Italian Governing Law, Legislative decree 116, Jan. 27, 1992 and UKCCCR guidelines for the welfare of animals in experimental neoplasia. Br. J. Cancer 1988, 58:109–113). Female Swiss nude mice (7–9 weeks old) were supplied by Charles River (Calco, Italy) and kept in laminar air-flow rooms in sterilised cages, with bedding, food and acidified water. 4-HPR was obtained from Dr. J. A. Crowell —NCI Bethesda, Md., USA. 4-oxo-4-HPR and 4-HPR were dissolved in absolute ethanol and then diluted in a sterile 0.9% (w/v) NaCl solution containing 1,65 mg/ml bovine serum albumin (Sigma, St Louis, Mo., USA) at a final ethanol concentration of 10% (v/v). The drug solutions were freshly prepared once a week, protected from light and kept at 4° C. Mice were treated i.p. with 120 mg/kg of 4-oxo-4-HPR or 4-HPR for 4 days. The two drugs were delivered at a volume of 10 ml/kg of body weight. Control mice were treated with the same solvent of 4-oxo-4HPR and 4-HPR. Three mice per group were used. Blood samples, for drug and retinol measurements, were drawn from the retroorbital plexus of anesthetized mice before and 5 hr after the last treatment, collected into heparinized tubes and wrapped in aluminium foil in order to protect them from light. Retinol and drug concentrations in plasma were assayed by HPLC as previously described (Formelli et al., Cancer Res. 1989, 49:6149–6152) and as above reported (see Exemple 1) and are reported in Table 3.

The next data set has as its system SKOV-3. The data set can be described thus: Growth inhibition (sulforhodamine B assay). The data set is classed as cell-based. Particulars: Homo sapiens, read-out: 50% Inhibitory Concentrations (IC50) at 72 h. Here is the method:
(§1) The following human ovarian carcinoma cell lines were tested: A2780 was obtained from Dr. R. F. Ozols (National Cancer Institute, Bethesda, Md., USA); IGROV-1 was obtained from Dr. J. Benard (Villejuif, France); OVCA432 was obtained from Dr. R. C. Knapp (Boston, Mass., USA); OAW42 and SKOV-3 were purchased from ATCC (Rockville, Md., USA). A2780/HPR, a 4-HPR— resistant ovarian carcinoma cell line, was obtained in our laboratory by continuous exposure of A2780 cells to increasing concentrations of 4-EPR as previously described (Appierto et al., Br. J. Cancer, 2001, 84:1528–1534; Prinetti et al., J. Biol. Chem., 2003, 278:5574–5583). Briefly, cells surviving 60 transplants in 4-HPR —containing medium (3 transplants at 1 μM, 11 transplants at 2 μM, 8 transplants at 3 μM, and 38 transplants at 5 μM) were cloned by limiting dilution. […] Therefore, A2780/HPR cells were continuously maintained in 5 μM 4-HPR and seeded without 4-HPR in all the experiments performed to test their sensitivity to 4-oxo-4-HPR.
(§2) The following human breast tumor cell lines, obtained from Dr. R. Sutherland (Garvan Institute, Sydney, Australia) were tested: T-47D, BT-20 and MCF-7. The following human neuroblastoma cell lines, purchased from ATCC, were tested: SK-N-BE, SK-N-SH, SK-N-MC, and GI-LI-N. All cell lines were grown in monolayer, in medium containing 10% fetal bovine serum (Invitrogen) in 5% CO2 at 37° C. The medium for A2780, A2780/HPR, IGROV-1, OVCA432, SKOV-3, T-47D, BT-20, MCF-7, GI-LI-N and SK-N-BE cells was RPMI 1640 (Cambrex, Verviers, Belgium) and the medium for OAW42, SK-N-MC and SK-N-SH cells was EMEM (ATCC).
(§3) For the growth inhibition assays, cells were seeded at a density of 3500 cells per well in 96 cluster tissue culture plates, and treated 24 hr after seeding with different concentrations of 4-oxo-4-HPR or 4-HPR. 4-oxo-4-HPR was dissolved in absolute ethanol and 4-HPR (obtained from Dr. J. A. Crowell —NCI Bethesda, Md., USA) was dissolved in Me2SO. […] Control cultures received the same amount of ethanol or Me2SO as the treated cultures. 72 hr after treatment cell number was estimated by using the sulforhodamine B assay according to Monks et al., (J. Natl. Cancer, 1991, 11: 757–766). The survival of treated cells was calculated for the various drug concentrations as percentage of the survival of control cells. The antiproliferative activity of 4-oxo-4-HPR and 4-HPR in each cell line, was tested in three separate experiments and the average values ±SD are reported in FIGS. 2, 3, and 4.
Background: The SRB assay estimates cell density from bound dye.

Another data set deals with OAW42. The data set can be described thus: Growth inhibition (sulforhodamine B assay). The class given is cell-based. Conditions: Homo sapiens, read-out: 50% Inhibitory Concentrations (IC50) at 72 h. The protocol: as §1, §2, §3

Like-named read-outs stand apart in the source and are kept apart here.

As for `CC1=C(/C=C/C(C)=C/C=C/C(C)=C/C(=O)Nc2ccc(O)cc2)C(C)(C)CCC1` [4-HPR, N-(4-hydroxyphenyl)retinamide, reference compound], the “induction of apoptosis (DNA fragmentation, fold versus control cells)” value with A2780/HPR was “had no effect”. Also, the Retinol % reduction in the data set with plasma retinol levels turned out to be 56%. The IC50 turned out to be 8 µM in the data set with SKOV-3 (SK-OV-3, SKOV-3, 72 h) and 10 µM in the data set on OAW42 (OAW-42, OAW42, 72 h).
In the case of `CC1=C(/C=C/C(C)=C/C=C/C(C)=C/C(=O)Nc2ccc(O)cc2)C(C)(C)CCC1=O` [4-oxo-4-HPR, 4-oxo-N-(4-hydroxyphenyl)retinamide], the “induction of apoptosis (DNA fragmentation, fold versus control cells)” value with A2780/HPR is “induced apoptosis”. Also, the “reduction of plasma retinol levels, in words” value in the data set on plasma retinol levels is recorded as “reduction only slightly higher than observed in control mice”. Further, the Retinol % reduction in the data set on plasma retinol levels stood at 38%. Besides, the IC50 in the data set with SKOV-3 (SK-OV-3, 72 h) turned out to be 2 µM; in the data set on OAW42 (OAW-42, 72 h), 3 µM.
